{"source": "patent US9540418B2", "about": "“Polypeptide specifically binding to rare earth nanoparticles and use thereof” (University of Science and Technology of China, priority 2012, dated 2017)", "key": {"[1]": {"experiment": "Binding ability of FITC-RE-1 to various inorganic nanomaterials (fluorescence spectrophotometer)", "method": "10 μg of FITC-RE-1 polypeptide was incubated with 100 μL of various inorganic nanomaterials (1 mg/mL) at room temperature for 1 hr, and then centrifuged at 12000 rpm for 10 min. The resulting precipitate was washed 3 times. Then, a fluorescence spectrophotometer (RF-5301 PC, Shimadzu, Japan) was used to detect FITC (emission wavelength: 535 nm). The standard curve of fluorescence intensity vs. concentration for FITC-RE-1 was used as control, and thus the binding ability of the various inorganic nanomaterials to FITC-RE-1 polypeptide was determined. […] However, RE-1 hardly bound to non rare-earth materials, such as diamond, TiO2, SiO2, SiO3, and nano-silver (FIG. 4)."}, "[2]": {"tested_on": "living HeLa cells, the immobilized cells, and the cell culturing plate", "experiment": "Nonspecific adherence of nanophosphors with or without RE-1 coating", "assay_type": "cell-based", "details": "2 hr treatment, washed 3 times with PBS", "method": "Living HeLa cells (purchased from Institute of Biochemistry and Cell Biology, SIBS, CAS) cultured in a 96-well plate, immobilized cells, and cell culturing plate were treated with UCN and UCN-S with or without RE-1 coating for 2 hr, respectively, and then washed with PBS for 3 times. The binding of UCN nanoparticles to the living HeLa cells, the immobilized cells, and the cell culturing plate was observed under a fluorescence microscope (Olympus IX71, Olympus, Japan) equipped with a 980 nm infrared laser (MDL-980 nm 1W, Changchun New Industries Optoelectronics Tech. Co., Ltd, China)."}, "HeLa cells [3]": {"tested_on": "HeLa cells", "experiment": "Adherence of UCN coated with RE-1 or RE-1-RGD to HeLa cells", "assay_type": "cell-based", "details": "37° C., 2 hr, versus uncoated", "method": "HeLa cells were cultured on a coverslip (22 mm×22 mm), which was then placed into a 6-well plate with the cells facing upward or downward, and the coverslip was supported by a sterilized glass cube (2 mm×2 mm×2 mm). Then, 4 mL of DMEM medium containing the rare-earth upconversion nanophosphors coated with RE-1 or RE-1-RGD or without any coating was slowly poured into the 6-well plate, such that the cells were fully immersed in the medium, and the coverslip was just located at the middle of the height of the liquid. The cells were placed into a cell incubator at 37° C. for 2 hr, and then washed with PBS 3 times. The UCNs adhered to the surfaces of the cells were observed under a fluorescence microscope (Olympus IX71, Olympus, Japan) equipped with a 980-nm infrared laser (MDL-980 nm 1 W, Changchun New Industries Optoelectronics Tech. Co., Ltd, China)."}, "HeLa-LC3 cells": {"tested_on": "HeLa-LC3 cells", "experiment": "RE-1 analogues blocking nanophosphor-induced autophagy (LC3 aggregates and vacuoles)", "assay_type": "cell-based", "method": "UCN and UCP coated with RE-1 analogues RE-2, RE-3, or RE-5 were prepared as follows: 50 μg or 10 μg RE-1 analogues RE-2, RE-3, or RE-5 was mixed with 100 μg UCN or UCP, respectively, incubated at 37° C. for 2 hr, centrifuged at 12000 rpm, and then washed with water 3 times to remove the excess and unbound peptides. The resultant precipitate was resuspended in 100 μL water.\nHeLa-LC3 cells were inoculated into a 96-well cell culture plate at a density of about 1-2×10^4 cells/well, and cultured overnight for further use. At first, the medium was replaced with fresh DMEM medium, and then 100 μg/mL UCN, UCN+RE-1, UCN+RE-2, UCN+RE-3, or UCN+RE-5 was added. An equal volume of PBS was used as blank. A mixture of 100 μg/mL UCN and 10 mg/mL PEG was used as negative control. A mixture of 100 mM trehalose and 50 μg RE-1 was used as positive control. After culturing for 24 hr, a fluorescence microscope was used to observe, image, and count.\nHeLa-LC3 cells were inoculated into a 96-well cell culture plate at a density of about 1-2×10^4 cells/well, and cultured overnight for further use. At first, the medium was replaced with fresh DMEM medium, and then 100 μg/mL UCP, UCP+RE-1, UCP+RE-2, UCP+RE-3, or UCP+RE-5 was added. An equal volume of PBS was used as blank. After culturing for 24 hr, a fluorescence microscope was used to observe, image, and count.\nThe ability to induce cell autophagy was estimated by determining the numbers of LC3 aggregates and vacuoles."}, "HeLa cells [4]": {"tested_on": "HeLa cells", "experiment": "Cytotoxicity of UCN or UCP with or without RE-1 (MTT, PI staining)", "assay_type": "cell-based", "details": "10-1000 μg/mL, 24 hr, MTT and PI staining", "method": "MTT cell vitality assay is performed as follows: The cells to which samples have been added are cultured for 24 hr, and then 0.5 mg/mL MTT solution is added and cultured for 4 hr. The MTT solution in the well is discharged, and then 200 μL DMSO is added, followed by gently shaking the plate on a shaking table for 10 min. Detection is performed using microplate reader (ELX800, purchased from BIO-TEK) at a wavelength of 570 nm.\nPI staining assay is performed as follows: The cells to which samples have been added are cultured for 24 hr, and then to the culture Hoechst 33342 (10 mM, purchased from Sigma, USA, Catalog #: B2261) and PI (Propidium Iodide) (10 mM, purchased from Beyotime Biotechnology, Catalog #: ST511) are added for 10 min of staining. Then, the cells are detected and photographed under a fluorescence microscope (Olympus IX71, purchased from Olympus). The number of the cells counted by this assay was 500.\nHeLa cells were inoculated into a 96-well cell culturing plate at a density of about 1-2×10^4 cells/well, and cultured overnight for further use. At first, the medium was replaced with fresh DMEM medium, and then 10 μg/mL, 100 μg/mL, 250 μg/mL, 500 μg/mL, or 1000 μg/mL of UCN or UCP coated, with or without RE-1, were added, respectively. After culturing for 24 hr, MTT cell viability assay and PI staining were performed to detect the mortality of the cells."}, "mice liver": {"tested_on": "mice liver", "experiment": "Autophagosome formation in mice livers by transmission electron microscope", "assay_type": "in vivo, Balb/c mice", "details": "RE-1 with UCN, PEG with UCN, AP-1 with UCP", "method": "Balb/c mice (purchased from SLAC Laboratory Animal (Shanghai, China), 6 weeks old, and weighed 20 g when used) were bred in a sterile housing, and then 300 μg (dosage: 15 mg/kg) UCN, UCN+PEG (containing 10 mg PEG), UCN+RE-1, UCP, UCP+RE-1, or UCP+AP-1 was injected through tail vein. An equal volume of normal saline was injected as a control. After 24 hr, the livers of the mice were removed and subjected to western blotting assay.\nThe mice livers obtained as described in Example 21 were in situ fixed with 2.5% glutaral-dimethyl arsine buffer (pH 7.4) at 4° C. for 1 hr, then fixed with 2% osmium tetroxide at room temperature for 1 hr, and then dehydrated with ethanol gradients. Then, the cell samples were embedded into epoxy resin (EPON812). The embedded cell samples were cut into ultrathin slices, which were stained with uranyl acetate and lead citrate, and observed and imaged under a transmission electron microscope (JEOL-1230, JEOL, Japan)."}}}
{"sequence": "ACTARSPWICG [RE-1, RE-0 with terminal amino acids A and G added]", "values": [{"measurement": "binding to rare-earth metal oxides and rare-earth upconversion nanophosphors", "setting": "[1]; 10 μg FITC-RE-1, 1 mg/mL material, 1 hr, most strongly Y2O3, CeO2, Yb2O3, Nd2O3, UCN, UCN-S, UCP", "result": "strongly bound"}, {"measurement": "binding to non rare-earth materials", "setting": "[1]; diamond, TiO2, SiO2, SiO3, nano-silver, 10 μg FITC-RE-1, 1 hr", "result": "hardly bound"}, {"measurement": "nonspecific adherence of UCN coated with RE-1 versus UCN without RE-1 coating", "setting": "[2]", "result": "about 10 times lower"}, {"measurement": "nonspecific adherence of UCN-S coated with RE-1 versus UCN-S without RE-1 coating", "setting": "[2]", "result": "about 100 times lower"}, {"measurement": "number of coated upconversion nanophosphors adhered to the surface of the cells", "setting": "HeLa cells [3]", "result": "greatly reduced"}, {"measurement": "rank of ability after coating UCN to inhibit cell autophagy induced by UCN", "setting": "HeLa-LC3 cells; 100 μg/mL, 24 hr", "result": "RE-1>RE-3>RE-5"}, {"measurement": "inhibition of cell autophagy induced by Tre (trehalose)", "setting": "HeLa-LC3 cells; mixture of 100 mM trehalose and 50 μg RE-1", "result": "had no inhibition"}, {"measurement": "effect of coating with RE-1 on cytotoxicity of UCN, UCP", "setting": "HeLa cells [4]", "result": "significantly reduced cytotoxicity"}, {"measurement": "inhibition of autophagosome formation induced by nanophosphors (UCN, UCP) in liver", "setting": "mice liver", "result": "significantly inhibited"}]}
